Assay results published in article PMC12351382, “Fibrinography and thrombography (thrombodynamics-4D) in atrial fibrillation assessment of direct oral anticoagulants in geriatrics patients aged 80 years and older receiving direct oral anticoagulant therapy” (Research and Practice in Thrombosis and Haemostasis, 2025).

Legend:
[1] = Plasma DOAC concentration in ADAGE patients (chromogenic anti-FXa assay for rivaroxaban and apixaban; anti-FIIa Hemoclot assay for dabigatran); format: in vivo, human; conditions: for DOAC concentration, median (IQR): ADAGE patients ≥80 y, reduced dose: rivaroxaban 15 mg once daily, apixaban 2.5 mg twice daily, dabigatran 110 mg twice daily; for DOAC concentration, range: ADAGE patients, reduced dose (regimens as E1)
Source text: (§1) ADAGE is an academic, prospective, observational multicenter study (NCT 02464488; for details, see Foulon-Pinto et al.). We recruited hospitalized patients from the university hospital’s geriatric department (Assistance Publique-Hôpitaux de Paris, Paris, France). […] The DOAC dose regimen was at the discretion of the physician. Exclusion criteria included any acute, unstable comorbid condition or an estimated life expectancy of a few weeks. Sampling (see below) and last DOAC intake times were recorded on a standardized request form. Sampling time points were at the discretion of the physicians over a period of 20 days following inclusion. Time points were classified according to the time elapsed from the last oral intake (T, hours) for patients receiving rivaroxaban. T1 to T4 corresponded to peak time (Tmax), and T20 to T24 corresponded to trough (Tmin). […] Physicians prospectively collected demographic, clinical, and laboratory data (including creatinine clearance [CrCl] calculated with the Cockcroft–Gault formula). The study was approved by the institutionnel Ethics Committee (Comité consultatif de protection des personnes pour la recherche biomédicale–Île-de-France-6–number 15.074bis). All participants gave written informed consent to participate in the study. Only patients for whom remaining plasma aliquots were available were included in the present study.
(§2) Tubes were sent to each centre’s laboratory within 2 hours after sampling and immediately double-centrifuged for 15 minutes at 2000 × g at 15 to 22 °C to obtain platelet-poor plasma. Plasma samples (500 μL aliquots) were stored at −80 °C prior to shipment on dry ice for central analysis (Haematology Laboratory, Hôpital Lariboisière). Plasma samples were thawed for 3 to 5 minutes in a 37 °C water bath just before testing.
Dedicated calibrations and controls were used. The lower limit of quantification was 20 ng/mL for the 3 assays.

fibrin clot formation [2] = test: Thrombodynamics-4D fibrinography in plasma samples from ADAGE patients on DOACs; format: in vivo, human; conditions: for CS (clot size at 30 minutes), median (IQR) / CS (clot size at 30 minutes), range / D (clot density), median (IQR) / D (clot density), range / Fibrinography Tlag (lag time), median (IQR) / Fibrinography Tlag (lag time), range / Initial rate of clot growth (Vi), median (IQR) / Initial rate of clot growth (Vi), range / Time to Tsp (spontaneous clotting), median (IQR) / Time to Tsp (spontaneous clotting), range: ADAGE patients, reduced dose (regimens as E1)
Source text: as §1, §2
(§3) The TD-4D assay was performed centrally using the Thrombodynamics analyzer system (Hemacore, Diapharma) with the TD-4D PLS dedicated kit (Hemacore, Diapharma). The system simultaneously measures spatiotemporal parameters of fibrin clot formation (fibrinography) and TG process (thrombography) in a thin layer of unstirred plasma. Briefly, 120 μL of platelet-poor plasma is added to a microcuvette containing corn trypsin inhibitor to prevent contribution of contact phase activation, then 5 μL of phospholipid solution (manufacturer’s reagent) is added. After incubation for 15 minutes at 37 °C in the Thrombodynamics device, the mixture is transferred to a second microcuvette containing calcium ions, and then immediately transferred to the measurement cuvette. Finally, the activator insert, whose surface is coated with immobilized tissue factor (100 pmol/m^2), is then transferred to the cuvette. The process of fibrin clot formation is recorded in a time-lapse video-microscopy mode using a dark-field light scattering method. Simultaneously, the system monitors TG by fluorimetry, based on the ability of thrombin to cleave a fluorogenic substrate, 7-amino-4-methylcoumarin (AMC) bound to a short amino acid sequence (Arg-Gly-Gly). The rate of AMC formation is proportional to local thrombin concentration. The microcuvette is maintained at 37 °C and is illuminated with red (625 nm) or ultra-violet (365 nm) light emitting diodes. Clot growth is detected with red light scattering, while AMC fluorescence is detected with UV. Scattered red light and fluorescence passing through the macro lens are recorded by a charge-coupled device system. Images under red and blue light are acquired once per minute. The whole analysis lasts 1 hour. The Thrombodynamics software (Hemacore, Diapharma) calculates parameters of spatiotemporal dynamics of fibrin clot formation and TG [40, 46]. […]

thrombin generation [3] = test: Thrombodynamics-4D thrombography in plasma samples from ADAGE patients on DOACs; format: in vivo, human; conditions: for ETP (endogenous thrombin potential, ETP_ATG), median (IQR) / ETP (endogenous thrombin potential, ETP_ATG), range / Thrombin peak height (Cmax_ATG), median (IQR) / Thrombin peak height (Cmax_ATG), range / Thrombography Tlag (Lag_ATG), median (IQR) / Thrombography Tlag (Lag_ATG), range / Time to peak (Tmax_ATG), median (IQR) / Time to peak (Tmax_ATG), range: ADAGE patients, reduced dose (regimens as E1)
Source text: as §1, §2, §3

fibrin clot formation [4] = test: Thrombodynamics-4D fibrinography in pooled normal plasma (Cryocheck) spiked with DOACs; format: biochemical, human; conditions: 0 to 1000 nM, mainly at low DOAC concentrations
Protocol: (§4) Frozen pooled normal plasma samples (Cryocheck-Cryopep) were spiked with increasing concentrations of DOACs (0-450 ng/mL), as previously described. […] were kindly provided by Bristol Myers Squibb/Pfizer, Bayer Healthcare, and Boehringer Ingelheim, respectively.
The TD-4D assay was performed centrally using the Thrombodynamics analyzer system (Hemacore, Diapharma) with the TD-4D PLS dedicated kit (Hemacore, Diapharma). The system simultaneously measures spatiotemporal parameters of fibrin clot formation (fibrinography) and TG process (thrombography) in a thin layer of unstirred plasma. Briefly, 120 μL of platelet-poor plasma is added to a microcuvette containing corn trypsin inhibitor to prevent contribution of contact phase activation, then 5 μL of phospholipid solution (manufacturer’s reagent) is added. […] The process of fibrin clot formation is recorded in a time-lapse video-microscopy mode using a dark-field light scattering method. […] Clot growth is detected with red light scattering, while AMC fluorescence is detected with UV. Scattered red light and fluorescence passing through the macro lens are recorded by a charge-coupled device system. […]
(§5) The following fibrinography parameters were recorded (see Supplementary Table 1): (i) lag time (Tlag, minutes); (ii) initial rate of clot growth (Vi, μm/min); (iii) rate of clot growth (V, μm/min); (iv) clot size (CS, μm) measured at 30 minutes; (v) clot density (D, arbitrary units); (vi) time to spontaneous clotting (Tsp, minutes). The following thrombography parameters (at the near-activator area) were recorded (see Supplementary Table 1): (i) Tlag (minutes); (ii) time to thrombin peak (minutes); (iii) maximal thrombin concentration (ie, thrombin peak height, Cmax_ATG, AU/L); (iv) endogenous thrombin potential (ETP_ATG, AU⋅min/L); (v) stationary amplitude of moving peak of thrombin (Ast, AU/L); (vi) rate of thrombin peak propagation (μm/min; see Supplementary Videos 1–3).

thrombin generation [5] = test: Thrombodynamics-4D thrombography in pooled normal plasma (Cryocheck) spiked with DOACs; format: biochemical, human
Protocol: as §4
as §3, with “minute.” for “minute. The whole analysis lasts 1 hour. The Thrombodynamics software (Hemacore, Diapharma) calculates parameters of spatiotemporal dynamics of fibrin clot formation and TG [40, 46].”
as §5

[6] = all ADAGE patient samples, any time point and dose
[7] = all ADAGE patient samples, Spearman
[8] = univariate analysis, Tmax, line marked Halving
[9] = univariate analysis, Tmin, line marked Halving

O=C(NC[C@H]1CN(c2ccc(N3CCOCC3=O)cc2)C(=O)O1)c1ccc(Cl)s1 [Rivaroxaban]
DOAC concentration, median (IQR) ([1]; Tmax (peak)): 248 (181-397) ng/mL | DOAC concentration, range ([1]; Tmax (peak)): 64 to 676 ng/mL | DOAC concentration, median (IQR) ([1]; Tmin (trough)): 42 (27-69) ng/mL | DOAC concentration, range ([1]; Tmin (trough)): 20 to 149 ng/mL | DOAC plasma concentration, lower end of range [1, 6]: < 20 ng/mL | DOAC plasma concentration, upper end of range [1, 6]: 676 ng/mL | CS (clot size at 30 minutes), median (IQR) (fibrin clot formation [2]; Tmax (peak)): 1236 (1112-1393) μm | CS (clot size at 30 minutes), range (fibrin clot formation [2]; Tmax (peak)): 1019-1759 μm | D (clot density), median (IQR) (fibrin clot formation [2]; Tmax (peak)): 23,230 (20,060-28,420) a.u. | D (clot density), range (fibrin clot formation [2]; Tmax (peak)): 14,690-33,710 a.u. | Fibrinography Tlag (lag time), median (IQR) (fibrin clot formation [2]; Tmax (peak)): 2.0 (1.7-2.6) min | Fibrinography Tlag (lag time), range (fibrin clot formation [2]; Tmax (peak)): 1.3 to 4.7 min | Initial rate of clot growth (Vi), median (IQR) (fibrin clot formation [2]; Tmax (peak)): 60.6 (56.2-65.3) μm/min | Initial rate of clot growth (Vi), range (fibrin clot formation [2]; Tmax (peak)): 45.0-84.6 μm/min | Time to Tsp (spontaneous clotting), median (IQR) (fibrin clot formation [2]; Tmax (peak)): 18.5 (11.4-31.6) min | Time to Tsp (spontaneous clotting), range (fibrin clot formation [2]; Tmax (peak)): 7.7 to 58.1 min | CS (clot size at 30 minutes), median (IQR) (fibrin clot formation [2]; Tmin (trough)): 1691 (1632-1734) μm | CS (clot size at 30 minutes), range (fibrin clot formation [2]; Tmin (trough)): 1276-2029 μm | D (clot density), median (IQR) (fibrin clot formation [2]; Tmin (trough)): 23,940 (20,550-30,160) a.u. | D (clot density), range (fibrin clot formation [2]; Tmin (trough)): 18,160-37,370 a.u. | Fibrinography Tlag (lag time), median (IQR) (fibrin clot formation [2]; Tmin (trough)): 1.2 (1.0-1.4) min | Fibrinography Tlag (lag time), range (fibrin clot formation [2]; Tmin (trough)): 0.8 to 2.1 min | Initial rate of clot growth (Vi), median (IQR) (fibrin clot formation [2]; Tmin (trough)): 70.4 (64.9-75.8) μm/min | Initial rate of clot growth (Vi), range (fibrin clot formation [2]; Tmin (trough)): 56.5-87.1 μm/min | Time to Tsp (spontaneous clotting), median (IQR) (fibrin clot formation [2]; Tmin (trough)): 10.9 (7.1-23.1) min | Time to Tsp (spontaneous clotting), range (fibrin clot formation [2]; Tmin (trough)): 3.2 to 42.3 min | Change of CS (clot size) with increasing concentrations (fibrin clot formation [2]; all ADAGE patient samples): decreased | Association of D (clot density) with DOAC concentration (fibrin clot formation [2]; [7]): not | Relationship between time to spontaneous clot formation (Tsp) and DOAC levels (fibrin clot formation [2]; [7]): no relationship | Effect of DOAC concentration at Tmax (βC.pic) on fibrinography initial velocity of clot formation (fibrin clot formation [2]; [8]): ≈ −0.001769% | Effect of DOAC concentration at Tmin (βC.res) on fibrinography initial velocity of clot formation (fibrin clot formation [2]; [9]): ≈ 0.08094% | ETP (endogenous thrombin potential, ETP_ATG), median (IQR) (thrombin generation [3]; Tmax (peak)): 1391 (1176-1774) AU⋅min/L | ETP (endogenous thrombin potential, ETP_ATG), range (thrombin generation [3]; Tmax (peak)): 601-2371 AU⋅min/L | Thrombin peak height (Cmax_ATG), median (IQR) (thrombin generation [3]; Tmax (peak)): 203 (140-268) AU/L | Thrombin peak height (Cmax_ATG), range (thrombin generation [3]; Tmax (peak)): 64-371 AU/L | Thrombography Tlag (Lag_ATG), median (IQR) (thrombin generation [3]; Tmax (peak)): 1.1 (0.8-1.5) min | Thrombography Tlag (Lag_ATG), range (thrombin generation [3]; Tmax (peak)): 0.6 to 3.9 min | Time to peak (Tmax_ATG), median (IQR) (thrombin generation [3]; Tmax (peak)): 3.1 (2.6-3.8) min | Time to peak (Tmax_ATG), range (thrombin generation [3]; Tmax (peak)): 2.6 to 7.1 min | ETP (endogenous thrombin potential, ETP_ATG), median (IQR) (thrombin generation [3]; Tmin (trough)): 1832 (1322-2480) AU⋅min/L | ETP (endogenous thrombin potential, ETP_ATG), range (thrombin generation [3]; Tmin (trough)): 557-3572 AU⋅min/L | Thrombin peak height (Cmax_ATG), median (IQR) (thrombin generation [3]; Tmin (trough)): 289 (254-422) AU/L | Thrombin peak height (Cmax_ATG), range (thrombin generation [3]; Tmin (trough)): 132- 544 AU/L | Thrombography Tlag (Lag_ATG), median (IQR) (thrombin generation [3]; Tmin (trough)): 0.2 (0.1-0.4) min | Thrombography Tlag (Lag_ATG), range (thrombin generation [3]; Tmin (trough)): 0.1 to 0.9 min | Time to peak (Tmax_ATG), median (IQR) (thrombin generation [3]; Tmin (trough)): 2.1 (1.6-2.1) min | Time to peak (Tmax_ATG), range (thrombin generation [3]; Tmin (trough)): 1.6 to 3.1 min | Change of ETP_ATG with increasing DOAC plasma concentrations (thrombin generation [3]; all ADAGE patient samples): decreased | Effect of DOAC concentration at Tmax (βC.pic) on thrombography peak height (PH) (thrombin generation [3]; [8]): ≈ 0.1032% | Effect of DOAC concentration at Tmin (βC.res) on thrombography peak height (PH) (thrombin generation [3]; [9]): ≈ 0.238% | Samples in which spontaneous clotting occurred (fibrin clot formation [4]): 14% | Change of Ast (stationary amplitude of thrombin moving peak) with increasing concentrations (thrombin generation [5]): not
